{"source": "ChEMBL document CHEMBL3871262", "about": "“β-Ionone and its analogs as promising anticancer agents” (Eur J Med Chem, 2016)", "key": {"[1]": {"assay": "Cytotoxicity against human PC3 cells assessed as decrease in cell viability after 72 hrs by MTT assay", "format": "functional, cell-based", "settings": "PC-3, 72 h"}, "[2]": {"assay": "Cytotoxicity against human 22Rv1 cells harboring AR H874Y mutant assessed as decrease in cell viability after 72 hrs by MTT assay", "format": "functional, cell-based, CWR22R", "settings": "22Rv1, 72 h"}, "[3]": {"assay": "Cytotoxicity against human LNCAP cells harboring AR T877A mutant assessed as decrease in cell viability after 72 hrs by MTT assay", "format": "functional, cell-based"}, "[4]": {"assay": "Cytotoxicity against human C4-2B cells harboring AR T877A mutant assessed as decrease in cell viability after 72 hrs by MTT assay", "format": "functional, cell-based", "settings": "LNCaP C4-2B"}, "[5]": {"assay": "Cytotoxicity against human MDA PCa 2b cells harboring AR T877A/L701H double mutant assessed as decrease in cell viability after 72 hrs by MTT assay", "format": "functional, cell-based"}, "[6]": {"assay": "Cytotoxicity against human DU145 cells assessed as decrease in cell viability after 72 hrs by MTT assay", "format": "functional, cell-based", "settings": "DU-145, 72 h"}, "[7]": {"assay": "Growth inhibition of human SGC7901 cells at 25 uM after 24 to 48 hrs by MTT assay relative to control", "format": "functional", "settings": "SGC-7901, read-out: GI"}, "[8]": {"assay": "Antiproliferative activity against human SGC7901 cells", "format": "functional, cell-based", "settings": "SGC-7901"}, "[9]": {"assay": "Growth inhibition of human MDA-MB-435 cells after 7 days relative to control", "format": "functional, cell-based", "settings": "MDA-MB-435, 168 h"}, "[10]": {"assay": "Antiproliferative activity against human DU145 cells after 72 hrs by flow cytometry", "format": "functional, cell-based", "settings": "DU-145, 72 h"}, "Rattus norvegicus [11]": {"test_system": "Rattus norvegicus", "assay": "(§1) Antitumor activity against DMBA-induced mammary carcinogenesis in Sprague-Dawley rat assessed as inhibition of tumor formation at 9 mmol/kg administered with AIN-76A diet treated 2 weeks prior to DMBA addition for 24 weeks by hematoxylin and eosin staining based microscopic analysis relative to DMBA treated control", "format": "functional"}, "MDA-MB-435 [12]": {"test_system": "MDA-MB-435", "assay": "Induction of apoptosis in human MDA-MB-435 cells assessed as inhibition of DNA synthesis after 48 hrs relative to control", "format": "functional"}, "[13]": {"assay": "Growth inhibition of human SGC7901 cells at 100 uM after 24 to 48 hrs by MTT assay relative to control", "format": "functional", "settings": "SGC-7901, read-out: GI"}, "[14]": {"assay": "Antiproliferative activity against human LNCAP cells after 72 hrs by flow cytometry", "format": "functional, cell-based"}, "[15]": {"assay": "Antiproliferative activity against human MCF7 cells", "format": "functional, cell-based"}, "[16]": {"assay": "Growth inhibition of human SGC7901 cells after 24 to 48 hrs by MTT assay", "format": "functional, cell-based", "settings": "SGC-7901"}, "Rattus norvegicus [17]": {"test_system": "Rattus norvegicus", "assay": "Antitumor activity against DMBA-induced mammary carcinogenesis in Sprague-Dawley rat assessed as tumor incidence at 18 mmol/kg administered with AIN-76A diet treated 2 weeks prior to DMBA addition for 24 weeks by hematoxylin and eosin staining based microscopic analysis (reference value: 82.1%)", "format": "functional"}, "[18]": {"assay": "Antiproliferative activity against human PC3 cells after 72 hrs by flow cytometry", "format": "functional, cell-based", "settings": "PC-3, 72 h"}, "[19]": {"assay": "Growth inhibition of human SGC7901 cells at 50 uM after 24 to 48 hrs by MTT assay relative to control", "format": "functional", "settings": "SGC-7901, read-out: GI"}, "Rattus norvegicus [20]": {"test_system": "Rattus norvegicus", "assay": "as §1, with “36” for “9”", "format": "functional"}, "[21]": {"assay": "Growth inhibition of human SGC7901 cells at 200 uM after 24 to 48 hrs by MTT assay relative to control", "format": "functional", "settings": "SGC-7901, read-out: GI"}, "[22]": {"assay": "Growth inhibition of human SGC7901 cells at 100 uM after 8 days by MTT assay relative to control", "format": "functional", "settings": "SGC-7901, 192 h, read-out: GI"}, "MDA-MB-435 [23]": {"test_system": "MDA-MB-435", "assay": "Inhibition of clone formation in human MDA-MB-435 cells after 48 hrs relative to control", "format": "functional"}, "Rattus norvegicus [24]": {"test_system": "Rattus norvegicus", "assay": "as §1, with “18” for “9”", "format": "functional"}, "[25]": {"assay": "Growth inhibition of human MDA-MB-435 cells at 100 uM after 7 days relative to control", "format": "functional", "settings": "MDA-MB-435, 168 h, read-out: GI"}, "MDA-MB-435 [26]": {"test_system": "MDA-MB-435", "assay": "Inhibition of cell mitosis in human MDA-MB-435 cells after 48 hrs relative to control", "format": "functional"}, "[27]": {"assay": "Growth inhibition of human MDA-MB-435 cells at 25 uM after 7 days relative to control", "format": "functional", "settings": "MDA-MB-435, 168 h, read-out: GI"}, "[28]": {"assay": "Growth inhibition of human SGC7901 cells at 25 uM after 8 days by MTT assay relative to control", "format": "functional", "settings": "SGC-7901, 192 h, read-out: GI"}, "Rattus norvegicus [29]": {"test_system": "Rattus norvegicus", "assay": "Antitumor activity against DMBA-induced mammary carcinogenesis in Sprague-Dawley rat assessed as tumor incidence at 36 mmol/kg administered with AIN-76A diet treated 2 weeks prior to DMBA addition for 24 weeks by hematoxylin and eosin staining based microscopic analysis (reference value: 82.1%)", "format": "functional"}, "Rattus norvegicus [30]": {"test_system": "Rattus norvegicus", "assay": "Antitumor activity against DMBA-induced mammary carcinogenesis in Sprague-Dawley rat assessed as tumor incidence at 9 mmol/kg administered with AIN-76A diet treated 2 weeks prior to DMBA addition for 24 weeks by hematoxylin and eosin staining based microscopic analysis (reference value: 82.1%)", "format": "functional"}, "[31]": {"assay": "Growth inhibition of human SGC7901 cells at 50 uM after 8 days by MTT assay relative to control", "format": "functional", "settings": "SGC-7901, 192 h, read-out: GI"}, "[32]": {"assay": "Growth inhibition of human MDA-MB-435 cells at 200 uM after 7 days relative to control", "format": "functional", "settings": "MDA-MB-435, 168 h, read-out: GI"}, "MCF7 [33]": {"test_system": "MCF7", "assay": "Induction of apoptosis in human MCF7 cells assessed as inhibition of DNA synthesis at 48 hrs relative to control", "format": "functional"}, "[34]": {"assay": "Growth inhibition of human SGC7901 cells at 200 uM after 8 days by MTT assay relative to control", "format": "functional", "settings": "SGC-7901, 192 h, read-out: GI"}, "[35]": {"assay": "Growth inhibition of human MDA-MB-435 cells at 50 uM after 7 days relative to control", "format": "functional", "settings": "MDA-MB-435, 168 h, read-out: GI"}, "MCF7 [36]": {"test_system": "MCF7", "assay": "Inhibition of cell mitosis in human MCF7 cells after 48 hrs relative to control", "format": "functional"}}, "data": [{"smiles": "CC1=C(/C=C/C(=O)/C=C/c2csc3ccccc23)C(C)(C)CCC1O", "note": "(stereo not given)", "values": [{"measurement": "IC50", "setting": "[1]", "result": "0.57 to 2", "unit": "µM"}, {"measurement": "IC50", "setting": "[2]", "result": "0.57 to 2", "unit": "µM"}, {"measurement": "IC50", "setting": "[3]", "result": "0.57 to 2", "unit": "µM"}, {"measurement": "IC50", "setting": "[4]", "result": "0.57 to 2", "unit": "µM"}, {"measurement": "IC50", "setting": "[5]", "result": "0.57 to 2", "unit": "µM"}]}, {"smiles": "COc1cc(/C=C(\\C(=O)/C=C/C2=C(C)C(O)CCC2(C)C)C(=O)/C=C/c2ccc(O)c(OC)c2)ccc1O", "note": "(stereo not given)", "values": [{"measurement": "IC50", "setting": "[6]", "result": "1.2 to 5.6", "unit": "µM"}, {"measurement": "IC50", "setting": "[1]", "result": "1.2 to 5.6", "unit": "µM"}, {"measurement": "IC50", "setting": "[2]", "result": "1.2 to 5.6", "unit": "µM"}, {"measurement": "IC50", "setting": "[3]", "result": "1.2 to 5.6", "unit": "µM"}, {"measurement": "IC50", "setting": "[4]", "result": "1.2 to 5.6", "unit": "µM"}]}, {"smiles": "CC(=O)/C=C/C1=C(C)CCCC1(C)C", "note": "[BETA-IONONE]", "values": [{"measurement": "inhibition of growth at 25 µM", "setting": "[7]", "result": 12, "unit": "%"}, {"measurement": "IC50", "setting": "[8]", "result": 175, "unit": "µM"}, {"measurement": "IC50", "setting": "[9]", "result": 42, "unit": "µM"}, {"measurement": "IC50", "setting": "[10]", "result": 210, "unit": "µM"}, {"measurement": "inhibition in vivo at 9000 µmol/kg", "setting": "Rattus norvegicus [11]", "result": 35.4, "unit": "%"}, {"measurement": "inhibition (INH)", "setting": "MDA-MB-435 [12]", "result": 78.35, "unit": "%"}, {"measurement": "inhibition of growth at 100 µM", "setting": "[13]", "result": 78.2, "unit": "%"}, {"measurement": "IC50", "setting": "[14]", "result": 130, "unit": "µM"}, {"measurement": "IC50", "setting": "[15]", "result": 104, "unit": "µM"}, {"measurement": "IC50", "setting": "[16]", "result": 89, "unit": "µM"}, {"measurement": "Activity", "setting": "Rattus norvegicus [17]", "result": 25.9, "unit": "%"}, {"measurement": "IC50", "setting": "[18]", "result": 130, "unit": "µM"}, {"measurement": "inhibition of growth at 50 µM", "setting": "[19]", "result": 30.6, "unit": "%"}, {"measurement": "inhibition in vivo at 36000 µmol/kg", "setting": "Rattus norvegicus [20]", "result": 87.8, "unit": "%"}, {"measurement": "inhibition of growth at 200 µM", "setting": "[21]", "result": 94.2, "unit": "%"}, {"measurement": "inhibition of growth at 100 µM", "setting": "[22]", "result": 74.4, "unit": "%"}, {"measurement": "inhibition (INH)", "setting": "MDA-MB-435 [23]", "result": 95.55, "unit": "%"}, {"measurement": "inhibition in vivo at 18000 µmol/kg", "setting": "Rattus norvegicus [24]", "result": 68.3, "unit": "%"}, {"measurement": "inhibition of growth at 100 µM", "setting": "[25]", "result": 81.5, "unit": "%"}, {"measurement": "inhibition (INH)", "setting": "MDA-MB-435 [26]", "result": 75.12, "unit": "%"}, {"measurement": "inhibition of growth at 25 µM", "setting": "[27]", "result": 45.6, "unit": "%"}, {"measurement": "inhibition of growth at 25 µM", "setting": "[28]", "result": 25.9, "unit": "%"}, {"measurement": "Activity", "setting": "Rattus norvegicus [29]", "result": 10, "unit": "%"}, {"measurement": "Activity", "setting": "Rattus norvegicus [30]", "result": 53.3, "unit": "%"}, {"measurement": "inhibition of growth at 50 µM", "setting": "[31]", "result": 28.2, "unit": "%"}, {"measurement": "inhibition of growth at 200 µM", "setting": "[32]", "result": 84.9, "unit": "%"}, {"measurement": "inhibition (INH)", "setting": "MCF7 [33]", "result": "35.1 - 81.89%"}, {"measurement": "inhibition of growth at 200 µM", "setting": "[34]", "result": 90.1, "unit": "%"}, {"measurement": "inhibition of growth at 50 µM", "setting": "[35]", "result": 71.2, "unit": "%"}, {"measurement": "inhibition (INH)", "setting": "MCF7 [36]", "result": 87.79, "unit": "%"}]}]}
